Test results as given in US20190117547A1, “COSMETIC COMPOSITIONS COMPRISING SCLAREOLIDE” (SYMRISE AG, priority 2016, published 2019).

Key:
Assay type in all cases: cell-based
[1] = tested on: IL6 (interleukin 6); assay: UVB induced gene expression (RTq PCR), IL6; settings: HaCaT cells, 50 μM Sclareolide, 20 mJ/cm^2 UVB, 24 hours; normalized to HPRT1 (UVB alone 8.4)
Experimental: (§1) HaCaT cells are seeded into a 12-well plate with 2.0×10^5 cells/well. After incubation over night the test compound (50 μM Sclareolide) is added to the cells and the plate is incubated for two more hours. Then cells are washed with PBS and irradiated with 20 mJ/cm^2 UVB (UVITEC Cambridge, 312 nm). PBS is removed and medium (control and with test compound) added. Cells are incubated for 24 hours. RNA is extracted and purified using the RNeasy kit (Qiagen) according to the manufacturer's instructions. The RNA concentration is determined with a photometer (Eppendorf) and 2 μg are used for reverse transcription, that is performed with the TaqMan® MicroRNACells-to-CT™ Kit (Ambion) like described in the user manual. Quantitative real time PCR is performed using the Applied Biosystems StepOne™ with customized TaqMan® Array Fast Plates with following primers: HPRT1 (hypoxanthine phosphoribosyltransferase 1) as housekeeping gene, EDN1(endothelin 1), CXCL1 (C—X—C motif chemokine ligand 1), IL6 (interleukin 6) and IL8 (C—X—C motif chemokine ligand 8). Target gene transcript levels are normalized to the HPRT1 transcript level and the relative transcript changes are calculated using the RQ=2-ΔΔCt method.

[2] = tested on: IL8 (C—X—C motif chemokine ligand 8); assay: UVB induced gene expression (RTq PCR), IL8; settings: HaCaT cells, 50 μM Sclareolide, 20 mJ/cm^2 UVB, 24 hours; normalized to HPRT1 (UVB alone 17.9)
Experimental: as §1

[3] = tested on: ex vivo human skin explants; assay: Melanin formation after visible light irradiation on ex vivo human skin; settings: for Inhibition vs Placebo: skin explants, visible light 480 J/cm2; for % of melanin: topical on skin explants, visible light 480 J/cm2, Fontana-Masson stain
Experimental: The below formulations were applied on ex vivo human skin explants from abdominal surgery of a donor with phototype IV (Fitzpatrick scale). 48 h after the formulations were removed with a cotton pad. Skin explants were exposed to visible light (480 J/cm2) with Hydrosun 750 equipped with KG1 filter. Formulations were reapplied afterwards. 48 h later skin sections were prepared and melanin was stained by Fontana-Masson stain. Quantification of melanin was done by image analysis.

[4] = tested on: Human epidermal melanoma cells A375; assay: Basal melanin formation in vitro; settings: for melanin: basal (no irradiation)
Experimental: Human epidermal melanoma cells A375 were cultured in 6-well plates. […] 48 h prior to and past to the irradiation the cells were treated with test compounds in non-cytotoxic concentrations. Melanocytes were lysed in a solution of NaOH. Melanin was quantified by measurement of absorbance at 405 nm and calculation based on a melanin standard curve.

[5] = tested on: genes well-known for the induction of hyperpigmentation; assay: UVB induced gene expression (RTq PCR), overall statement; settings: HaCaT cells, 50 μM Sclareolide, summary in words
Experimental: as §1

[6] = tested on: EDN1(endothelin 1); assay: UVB induced gene expression (RTq PCR), EDN1; settings: HaCaT cells, 50 μM Sclareolide, 20 mJ/cm^2 UVB, 24 hours; normalized to HPRT1 (UVB alone 22.7)
Experimental: as §1

[7] = tested on: Human epidermal melanoma cells A375; assay: Visible light induced hyperpigmentation in vitro; settings: for Inhibition vs visible light induced / melanin: visible light 480 J/cm2
Experimental: Human epidermal melanoma cells A375 were cultured in 6-well plates. The cells were exposed to visible light (480 J/cm2) with Hydrosun 750 equipped with KG1 filter. 48 h prior to and past to the irradiation the cells were treated with test compounds in non-cytotoxic concentrations. Melanocytes were lysed in a solution of NaOH. Melanin was quantified by measurement of absorbance at 405 nm and calculation based on a melanin standard curve.

[8] = tested on: CXCL1 (C—X—C motif chemokine ligand 1); assay: UVB induced gene expression (RTq PCR), CXCL1; settings: HaCaT cells, 50 μM Sclareolide, 20 mJ/cm^2 UVB, 24 hours; normalized to HPRT1 (UVB alone 5.4)
Experimental: as §1

[9] = 0.05% sclareolide formulation (C)
[10] = 0.2% sclareolide formulation (B)

## CC1(C)CCC[C@]2(C)C3CC(=O)O[C@]3(C)CC[C@@H]12 (stereo partly drawn) [sclareolide, (3aR,5aS,9aS,9bR)-deca hydro-3a,6,6,9a-tetramethylnaphtha[2,1-b]furan-2(1H)-one]
[1]
  RQ IL6: 5.7
[2]
  RQ IL8: 10.3
[3]; [9]
  Inhibition vs Placebo: 1.2%
  % of melanin: 61.33 ± 2.2%
[3]; [10]
  Inhibition vs Placebo: 32.4%
  % of melanin: 52.46 ± 2.9%
[4]; 3.16 μM sclareolide
  melanin: 0.7775 ± 0.0412 µg
[4]; 10 μM sclareolide
  melanin: 0.6554 ± 0.0408 µg
[4]; 31.6 μM sclareolide
  melanin: 0.8851 ± 0.0579 µg
[4]; summary in words
  effect on basal melanin formation: no effect
[5]
  inhibition of UVB induced upregulation of genes: inhibits
[6]
  RQ EDN1: 11.9
[7]; 3.16 μM sclareolide
  Inhibition vs visible light induced: 18%
  melanin: 0.8784 ± 0.0293 µg
[7]; 10 μM sclareolide
  Inhibition vs visible light induced: 67%
  melanin: 0.6306 ± 0.0675 µg
[7]; 31.6 μM sclareolide
  Inhibition vs visible light induced: 70%
  melanin: 0.6106 ± 0.0658 µg
[7]; summary in words
  inhibition of visible light induced hyperpigmentation: significantly inhibits
[8]
  RQ CXCL1: 2.8
